Measurements from patent US6913925B1, “Human mesencephalon cell lines and methods of use therefor” (Signal Pharmaceuticals LLC, priority 1998, dated 2005).

B1: CNTF: ciliary neurotrophic factor (protein, UniProt P26441 1-200, looked up)
Ciliary neurotrophic factor: MAFTEHSPLTPHRRDLCSRSIWLARKIRSDLTALTESYVKHQGLNKNINLDSADGMPVASTDQWSELTEAERLQENLQAYRTFHVLLARLLEDQQVHFTPTEGDFHQAIHTLLLQVAAFAYQIEELMILLEYKIPRNEADGMPINVGDGGLFEKKLWGLKVLQELSQWTVRSIHDLRFISSHQTGIPARGSHYIANNKKM
B2: GDNF: glial cell-derived neurotrophic factor (protein, UniProt P39905 78-211, looked up)
Glial cell line-derived …: SPDKQMAVLPRRERNRQAAAANPENSRGKGRRGQRGKNRGCVLTAIHLNVTDLGLGYETKEELIFRYCSGSCDAAETTYDKILKNLSRNRRLVSDKVGQACCRPIAFDDDLSFLDDNLVYHILRKHSAKRCGCI

system: immortalized human mesencephalon cells; experiment: Differentiation of conditionally-immortalized human mesencephalon cell lines into neurons; type: cell-based; details: added together: forskolin 10 μM, GDNF 20 ng/mL, CNTF 20 ng/mL, IGF-I 100 ng/mL, BDNF 20 ng/mL
From the text: Conditionally-immortalized human mesencephalon neural precursor cell lines (which may, but need not, be clonal) may generally be induced to differentiate into neurons by inhibiting the expression of the growth-promoting gene (i.e., suppressing the production and/or activity of the growth-promoting protein). For example, if the gene encoding the growth-promoting protein is under the control of an externally-regulatable promoter, the conditions (e.g. temperature or composition of medium) may be modified to suppress transcription of the growth-promoting gene. For the tetracycline-controlled gene expression system discussed above, differentiation may be achieved by the addition of tetracycline to suppress transcription of the growth-promoting gene. In general, 1-5 μg/mL tetracycline for 48 hours is sufficient to begin neuronal morphological differentiation, and the number of differentiated neurons increases during subsequent days. Such differentiation may be performed, for example, by plating the cells on a suitable substrate (e.g., one or a combination of polyamino acid, fibronectin, laminin or tissue culture plastic) in a medium consisting of DMEM/F-12 with N2 supplement and tetracycline (1-5 μg/mL). […] Culture medium may then be refreshed (e.g., every 2-4 days).
An increase in TH expression was also observed for some cell lines, indicating the presence of dopaminergic neurons.
One clone (MESII(1)-C2) was differentiated in DMEM/F-12 with N2 supplement, tetracycline (1 μg/mL), forskolin (10 μM), GDNF (20 ng/mL) and BDNF (20 ng/mL). Following differentiation, a high number of MAP2ab and TH immunoreactive cells were observed. For such immunocytochemistry, cells were fixed with 4% paraformaldehyde, and were incubated with primary antibody in blocking buffer for 2 hours at room temperature, rinsed, and then incubated with a fluorescein (FITC)- or Texas red-conjugated species-specific secondary antibody (Jackson lmmunoresearch Laboratories, Inc., West Grove, Pa.) in blocking buffer for another hour at room temperature. Cultures were then rinsed three times with PBS and coverslipped with PVA/DABCO before scoring and photographing representative fields.

| Molecule | enhancement of differentiation by addition to DMEM/F-12 with N2 supplement and tetracycline |
| --- | --- |
| IGF-I: insulin-like growth factor | differentiation is enhanced |
| BDNF: brain-derived neurotrophic factor | differentiation is enhanced |
| B1 | differentiation is enhanced |
| B2 | differentiation is enhanced |
